≈ marks a conversion by molar mass, not a printed value. Read-outs that look alike come from different tables or passages of the source.
Tests used:
[1] = system: Mycobacterium kansasii 235/80; experiment: Antimycobacterial MIC micromethod; type: cell-based; details: read-out: MIC M. kansasii 235/80
[2] = system: Mycobacterium tuberculosis 331/88 (H37Rv); experiment: Antimycobacterial MIC micromethod, Šula's medium; type: cell-based
[3] = system: Gram-positive cocci including MRSA; experiment: Antibacterial microdilution, summary for Gram-positive cocci; type: cell-based; details: Staphylococcus aureus, read-out: MICs against Gram-positive cocci
Experimental: The in vitro antibacterial activity was assayed against eight Gram-positive and Gram-negative strains: Staphylococcus aureus CCM 4516/08, methicillin-resistant Staphylococcus aureus H 5996/08 (MRSA), Staphylococcus epidermidis H 6966/08, Enterococcus sp. J 14365/08; Escherichia coli CCM 4517, Klebsiella pneumoniae D 11750/08, ESBL-positive Klebsiella pneumoniae J 14368/08, and Pseudomonas aeruginosa CCM 1961.
The microdilution broth method modified according to standard M07-A07 in Mueller-Hinton broth (HiMedia Laboratories, Mumbai, India) adjusted to pH 7.4 (±0.2) was used. The tested compounds were dissolved in DMSO to the final concentrations ranging from […]. Benzylpenicillin (penicillin G) was used as a comparative drug. Bacterial inoculum in sterile water was prepared to match 0.5 McFarland scale ([…]). The minimum inhibitory concentrations were assayed as 90% (IC90) or higher reduction of growth when compared to the control. The determination of results was performed visually and spectrophotometrically (at 540 nm). The values of MICs were determined after 24 and 48 h of incubation in the darkness at 35 °C (±0.1) in a humid atmosphere.

HepG2 cells = experiment: Cytotoxicity evaluation (CellTiter 96 MTS); type: cell-based, human; details: Homo sapiens, HepG2, 24 h, read-out: IC50 HepG2
Procedure, shortened: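 Human HepG2 cells (passages 21–24) seeded 1 × 10^4/well, treated next day with 0.01–20 µM compound (4-(trifluoromethyl)benzoic acid 10–4,000 µM), triplicates, 24 h at 37 °C. MTS reduction read at 490 nm after 2 h; IC50 = concentration cutting viability to 50% of control.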

[4] = system: Mycobacterium tuberculosis, M. avium and M. kansasii; experiment: Antimycobacterial MIC, summary over all mycobacterial strains; type: cell-based; details: range over all strains and times; read-out: MICs against all mycobacterial strains
[5] = 336 h, 14 d, read-out: MIC Mtb. 331/88
[6] = 504 h, 21 d, read-out: MIC Mtb. 331/88
[7] = time not stated, read-out: MIC against M. tuberculosis

| Compound | MIC ([1]; 235/80, 168 h, 7 d) [µM] | MIC ([1]; 235/80, 336 h, 14 d) [µM] | MIC ([1]; 235/80, 504 h, 21 d) [µM] | MIC [2, 5] [µM] | MIC [2, 6] [µM] | MIC [2, 7] [µM] | MIC [3] [µM] | IC50 (HepG2 cells) [µM] | MIC [4] [µM] |
| --- | --- | --- | --- | --- | --- | --- | --- | --- | --- |
| O=C(Oc1ccc(Cl)cc1C(=O)Nc1ccc(Cl)c(Cl)c1)c1ccc(C(F)(F)F)cc1 [1e] | 1 (≈ 0.489 µg/mL) | 2 (≈ 0.977 µg/mL) | 4 (≈ 1.95 µg/mL) | 1 (≈ 0.489 µg/mL) | 1 (≈ 0.489 µg/mL) | 1 (≈ 0.489 µg/mL) | < 1 | 3.13 |  |
| O=C(Oc1cc(Cl)ccc1C(=O)Nc1ccc(Br)cc1)c1ccc(C(F)(F)F)cc1 [1j] | 1 (≈ 0.499 µg/mL) | 4 (≈ 1.99 µg/mL) | 4 (≈ 1.99 µg/mL) | 2 (≈ 0.997 µg/mL) | 4 (≈ 1.99 µg/mL) |  | < 1 | 4.82 |  |
| O=C(Oc1ccc(Cl)cc1C(=O)Nc1ccc(C(F)(F)F)cc1)c1ccc(C(F)(F)F)cc1 [1o, 4-chloro-2-[4-(trifluoromethyl)phenylcarbamoyl]phenyl 4-(trifluoromethyl)benzoate] | 1 (≈ 0.488 µg/mL) | 2 (≈ 0.976 µg/mL) | 2 (≈ 0.976 µg/mL) | 1 (≈ 0.488 µg/mL) | 1 (≈ 0.488 µg/mL) | 1 (≈ 0.488 µg/mL) |  | 1.33 | 1 to 4 (≈ 0.488 to 1.95 µg/mL) |

— PMC6270420, “Antibacterial Activity of Salicylanilide 4-(Trifluoromethyl)benzoates” (Molecules, 2013)
